Assay results from article PMC4266796 (International Journal for Parasitology: Drugs and Drug …, 2014).
Entries after “also recorded” stand apart in the source; their conditions may differ. Where a name gives a salt, the structure may show the parent alone. Read-outs that look alike come from different tables or passages of the source.

How the values were obtained:
[1] = in vitro; conditions: Aedes albopictus
[2] = system: L. sigmodontis; test: In vivo L. sigmodontis screening assay, worm length; set-up: species or system Litomosoides sigmodontis in BALB/c mice
[3] = system: Wolbachia; conditions: ref Hermans et al., 2001; cited from earlier work
[4] = system: W. pipientis wAlbB in C6/36 (wAlbB) cells; test: microbe, parasite or virus in culture; type: cell-based, Wolbachia pipientis; conditions: for Dose response behaviour in titration series: 6 doses from 10 to 0.3 μM; for log reduction at 10 µM: Wolbachia pipientis, C6/36, 216 h, read-out: 16S log drop, 10 μM, 9 days, single agent screening
[5] = system: Wolbachia of L. sigmodontis; test: animal or person; type: in vivo, Wolbachia of Litomosoides sigmodontis in BALB/c mice; conditions: for log reduction at 25 mg/kg/day: ip, 240 h, read-out: wLs ftsz log drop in vivo
[6] = system: C6/36 (wAlbB) cells; conditions: 10 μM, luminescence vs vehicle-treated control
[7] = system: O gutturosa Wolbachia; type: cell-based, Wolbachia of Onchocerca gutturosa; conditions: for Reduction in Wolbachia (wsp:gst log drop from vehicle controls): 5 days; for Effect on Wolbachia load (in words): 12.5 to 0.195 μM
[8] = reduced regimen, 25 MKD for 10 days

Compound: Nc1nc(NC2CC2)c2ncn([C@H]3C=C[C@@H](CO)C3)c2n1 [Abacavir Sulfate]
- cytotoxicity at 10 µM [1]: 0%

Compound: O=C(O)c1cn(C2CC2)c2cc(N3CCNCC3)c(F)cc2c1=O [Ciprofloxacin hydrochloride]
- Effect on worm length (in words) ([2]; standard doses tested): did not reduce
- Activity in other cell-based Wolbachia assays [3]: no activity
- cytotoxicity at 10 µM [1]: 0%

Compound: COc1cc(/C=C/C(=O)CC(=O)/C=C/c2ccc(O)c(OC)c2)ccc1O [Curcumin]
- Dose response behaviour in titration series [4]: activity only at the highest concentration
- cytotoxicity at 10 µM [1]: 0%

Compound: CC(=O)Oc1cccc2c1C(=O)c1c(OC(C)=O)cc(C(=O)O)cc1C2=O [Diacerein]
- cytotoxicity at 10 µM [1]: 0%

Compound: CCCCC(CC)COC(=O)CC(C(=O)OCC(CC)CCCC)S(=O)(=O)[O-].CCCCC(CC)COC(=O)CC(C(=O)OCC(CC)CCCC)S(=O)(=O)[O-].[Ca+2] (centres unmarked) [Docusate Calcium]
- Ls length reduction in vivo (%) ([2]; 200 MKD IP for 14 days): 20.0%
- wLs ftsz log drop in vivo ([5]; 200 MKD IP for 14 days): 1.0 log
- Cytotoxicity (%) [6]: 0%

Compound: C[C@H]1c2cccc(O)c2C(=O)C2=C(O)[C@]3(O)C(=O)C(C(N)=O)=C(O)[C@@H](N(C)C)[C@@H]3[C@@H](O)[C@@H]21 [Doxycycline]
- 16S log drop in vitro ([4]; doxycycline gold standard, 7 μM, 9 days): 1.6 log
- Reduction in Wolbachia (wsp:gst log drop from vehicle controls) ([7]; 0.195 μM): 0.77 log
- Reduction in Wolbachia (wsp:gst log drop from vehicle controls) ([7]; 0.781 μM): 0.14 log
- Reduction in Wolbachia (wsp:gst log drop from vehicle controls) ([7]; 3.125 μM): 0.21 log
- Reduction in Wolbachia (wsp:gst log drop from vehicle controls) ([7]; 12.5 μM): 0.80 log
- Effect on Wolbachia load (in words) [7]: reduced the Wolbachia load
- log reduction at 25 mg/kg/day [5]: 2.2
- cytotoxicity at 7 µM [1]: 0%

Compound: CCC1(C)CC(=O)NC1=O (centres unmarked) [Ethosuximide]
- log reduction at 10 µM [4]: ≥ 1.6

Compound: CCOc1ccc2nc(S(N)(=O)=O)sc2c1 [Ethoxzolamide]
- cytotoxicity at 10 µM [1]: 19%

Compound: COc1ccc2c(c1)c(CC(=O)O)c(C)n2C(=O)c1ccc(Cl)cc1 [Indomethacin]
- log reduction at 10 µM [4]: ≥ 1.6
- cytotoxicity at 10 µM [1]: 0%

Compound: NNC(=O)c1ccncc1 [Isoniazid]
- cytotoxicity at 10 µM [1]: 0.3%

Compound: CO[C@@H]1[C@@H](O[C@@H]2O[C@H](C)[C@@H](O[C@H]3C[C@@](C)(O)[C@@H](OC(=O)CC(C)C)[C@H](C)O3)[C@H](N(C)C)[C@H]2O)[C@@H](CC=O)C[C@@H](C)[C@@H](O)/C=C/C=C/C[C@@H](C)OC(=O)C[C@H]1O [Kitasamycin]
- log reduction at 10 µM [4]: ≥ 1.6

Compound: CCOC(=O)N1CCC(=C2c3ccc(Cl)cc3CCc3cccnc32)CC1 [Loratadine]
- Effect on worm length (in words) ([2]; standard doses tested): no effect
- cytotoxicity at 10 µM [1]: 20.7%

Compound: C=C1c2cccc(O)c2C(=O)C2=C(O)[C@]3(O)C(=O)C(C(N)=O)=C(O)[C@@H](N(C)C)[C@@H]3[C@@H](O)[C@H]12 [Methacycline hydrochloride]
- Dose response behaviour in titration series [4]: active at all tested concentrations to the same extent
- log reduction at 10 µM [4]: ≥ 1.6
- cytotoxicity at 10 µM [1]: 0%

Compound: CN(C)c1ccc(O)c2c1C[C@H]1C[C@H]3[C@H](N(C)C)C(O)=C(C(N)=O)C(=O)[C@@]3(O)C(O)=C1C2=O [Minocycline]
- log reduction at 10 µM [4]: ≥ 1.6
- Effect on worm length (in words) ([2]; standard doses tested): significantly reduced
- log reduction at 25 mg/kg/day [5]: 3.78
- Reduction in Wolbachia load compared with the same dose/regimen of doxycycline ([5]; methacycline 50 MKD, minocycline 25 MKD for 10 days, P < 0.05): significantly greater
- Activity in the L. sigmodontis mouse model (in words) ([5]; mouse, in vivo): demonstrated activity
- Effect on Wolbachia load (in words) [5, 8]: significantly reduced
- Effect on Wolbachia load (in words) ([5]; standard doses tested): significantly reduced
- cytotoxicity at 10 µM [1]: 0%

Compound: COc1c(N2C[C@@H]3CCCN[C@@H]3C2)c(F)cc2c(=O)c(C(=O)O)cn(C3CC3)c12 [Moxifloxacin]
- Effect on Wolbachia load (in words) [7]: greatly reduced the Wolbachia load at all concentrations tested
- Activity in the L. sigmodontis mouse model (in words) ([5]; levofloxacin and moxifloxacin: data not shown / unpublished observations): active

Compound: CC1(C)NC(=O)N(c2ccc([N+](=O)[O-])c(C(F)(F)F)c2)C1=O [Nilutamide]
- cytotoxicity at 10 µM [1]: 0.01%

Compound: NC[C@@H]1O[C@H](O[C@H]2[C@@H](O)[C@H](O[C@@H]3[C@@H](O)[C@H](N)C[C@H](N)[C@H]3O[C@H]3O[C@H](CO)[C@@H](O)[C@H](O)[C@H]3N)O[C@@H]2CO)[C@H](N)[C@@H](O)[C@@H]1O [Paromomycin sulfate]
- Dose response behaviour in titration series [4]: showed a dose response
- log reduction at 10 µM [4]: ≥ 1.6
- cytotoxicity at 10 µM [1]: 0%

Compound: CO[C@H]1/C=C/O[C@@]2(C)Oc3c(C)c(O)c4c(O)c(c(/C=N/N5CCN(C6CCCC6)CC5)c(O)c4c3C2=O)NC(=O)/C(C)=C\C=C\[C@H](C)[C@H](O)[C@@H](C)[C@@H](O)[C@@H](C)[C@H](OC(C)=O)[C@@H]1C [Rifapentine]
- log reduction at 10 µM [4]: ≥ 1.6
- Reduction in Wolbachia (wsp:gst log drop from vehicle controls) ([7]; 0.195 μM): 0.99 log
- Reduction in Wolbachia (wsp:gst log drop from vehicle controls) ([7]; 0.781 μM): 0.78 log
- Reduction in Wolbachia (wsp:gst log drop from vehicle controls) ([7]; 3.125 μM): 0.77 log
- Reduction in Wolbachia (wsp:gst log drop from vehicle controls) ([7]; 12.5 μM): 1.04 log
- Effect on Wolbachia load (in words) [7]: greatly reduced the Wolbachia load at all concentrations tested
- Effect on worm length (in words) ([2]; standard doses tested): significantly reduced
- Activity in the L. sigmodontis mouse model (in words) ([5]; mouse, in vivo): demonstrated activity
- Effect on Wolbachia load (in words) ([5]; standard doses tested): significantly reduced
- cytotoxicity at 10 µM [1]: 20%

Compound: C[C@@H]1CN(c2c(F)c(N)c3c(=O)c(C(=O)O)cn(C4CC4)c3c2F)C[C@H](C)N1 [Sparfloxacin]
- Effect on worm length (in words) [2, 8]: did not significantly affect
- Effect on worm length (in words) ([2]; standard doses tested): significantly reduced
- log reduction at 25 mg/kg/day [5]: 0.6
- Activity in the L. sigmodontis mouse model (in words) ([5]; mouse, in vivo): demonstrated activity; also recorded: active
- Effect on Wolbachia load (in words) [5, 8]: did not significantly affect
- Effect on Wolbachia load (in words) ([5]; standard doses tested): significantly reduced
- cytotoxicity at 10 µM [1]: 0%

Compound: [H]/N=C(/N)NS(=O)(=O)c1ccc(N)cc1 [Sulfaguanidine]
- Dose response behaviour in titration series [4]: active at all tested concentrations to the same extent

Compound: C[C@H]1COc2c(N3CCN(C)CC3)c(F)cc3c(=O)c(C(=O)O)cn1c23 [levofloxacin]
- Activity in the L. sigmodontis mouse model (in words) ([5]; mouse, in vivo): inactive
